Source: patent US9504702B2, “Methods of inhibition of protein fucosylation in vivo using fucose analogs” (Seattle Genetics, Inc., priority 2010, dated 2016)

Columns and labels:
[1] = test system: circulating white blood cells and neutrophils; lymph nodes; test: Leukocytosis and lymph node cellularity following oral dosing; assay type: in vivo, Female Balb/c mice
Procedure: (§1) The effects of a fucose analog on leukocytosis and E-selectin binding were eamined in mice. Female Balb/c mice were given oral 2-fluorofucose (SGD-2083) in the drinking water or left untreated. Mice were bled prior to dosing and then weekly for three weeks to assess circulating cell numbers and their ability to bind E-selectin. In one study, 2-fluorofucose was formulated at 1 mM, 10 mM or 100 mM in the drinking water (n=3 per group). At day 14, mice were treated with TiterMAX® Classic adjuvant (Sigma) to stimulate polyclonal, antigen non-specific antibody production by B cells, and remained on the 2-fluorofucose-containing water through day 21. In a second study, mice were given oral 2-fluorofucose formulated at 10 mM and 100 mM in the drinking water for three weeks without any other treatments (n=6). On day 21, a pool of lymph nodes (axillary, brachial, superficial inguinal, and mesenteric) from each of three animals was assessed in addition to blood. Lymph nodes were homogenized into single cell suspensions, and total cell numbers were determined by counting on a hemcytometer, using Trypan Blue for dead cell exclusion. To determine total white cell numbers/μL blood, samples of blood from individual animals were counted on a hemacytometer, using Turk's solution (0.01% gentian violet in 3% acetic acid) to exclude red blood cells (RBCs). RBCs were eliminated from the remainder of the blood by osmotic lysis for flow cytometric analysis. Cells were incubated with anti-Gr-1-FITC antibodies (BD Biosciences) to identify neutrophils, and a recombinant E-selectin-human Fc fusion protein (R&D Systems). Cells were washed and then incubated with a PE-labeled goat anti-human IgG-Fc secondary antibody (Jackson Immunoresearch) to detect bound E-selectin. Samples were collected on a FACSCalibur flow cytometer and analyzed using CellQuest software. The percentage of Gr-1+ cells was determined and absolute number of neutrophils was calculated using the total white cell number from the hemacytometer count. In addition, flow samples were gated for Gr-1+ cells to assess E-selectin binding to neutrophils by histogram analysis. The geometric mean of the E-selectin fluorescent signal was determined from the histogram.

[2] = test system: A20 murine lymphoma cells; test: Tumor vaccine model, killed A20 immunization and live A20 challenge; assay type: in vivo, Female Balb/c mice; details: 50 mM in drinking water days -14 through +21
Procedure: Female Balb/c mice were immunized by subcutaneous implantation of 1 million A20 murine lymphoma cells (killed by irradiation) on day −21 and day −7. Another group of mice were not given any immunization. On day 0, all mice were inoculated iv with 1.5 or 5 million live A20 cells. On days −14 through +21, mice were provided with 50 mM 2-fluorofucose (SGD-2083) in their drinking water or given regular drinking water. The 8 treatment groups were as follows: • 1. No immunization, 1.5 million live A20 cells, regular drinking water • 2. No immunization, 5 million live A20 cells, regular drinking water • 3. No immunization, 1.5 million live A20 cells, 50 mM SGD-2083 in drinking water • 4. No immunization, 5 million live A20 cells, 50 mM SGD-2083 in drinking water • 5. Immunized, 1.5 million live A20 cells, regular drinking water • 6. Immunized, 5 million live A20 cells, regular drinking water • 7. Immunized, 1.5 million live A20 cells, 50 mM SGD-2083 in drinking water • 8. Immunized, 5 million live A20 cells, 50 mM SGD-2083 in drinking water Results

PC-3 = test: Xenograft of pre-treated PC-3 cells (Example 7, Study 2); assay type: in vivo, female nude mice; details: 20 mM in drinking water
Procedure: To further evaluate the activity of these fucose analogs, further studies were performed in vivo using tumor cells that had been pre-treated by culturing in the presence of a fucose analog, or using untreated tumor cells. Tumor cells were implanted into 10 mice per group as follows. For the LS174T, PC-3, and Caki-1 cell lines, 5×10^5 cells in 25% Matrigel were implanted subcutaneously into female nude mice. For HL-60 and Ramos cell lines, 5×10^6 cells were implanted subcutaneously into female SCID mice. For mice implanted with untreated tumor cells, mice were provided regular drinking water. For mice implanted with tumor cells pre-treated with 2-fluorofucose (SGD-2083), the mice were provided drinking water supplemented with 20 mM 2-fluorofucose (SGD-2083). For mice implanted with tumor cells pre-treated with alkylnyl fucose (SGD-1887), the mice were provided with regular drinking water.
After 3 weeks of receiving 2-fluorofucose-containing drinking water, mice were returned to regular drinking water, except for mice with Caki-1 tumors. The latter mice were returned to regular drinking water for one week. After the week of receiving regular water, mice were randomized to two groups of 5 each to receive drinking water supplemented with 20 mM 2-fluorofucose or regular drinking water. Mice were sacrificed when tumors reached about 1000 mm^3.

[3] = test system: LS174T, PC-3, HL-60, Ramos, and Caki-1 cell lines; test: Cell surface fucosylation of human-derived cell lines cultured with fucose analog, FACS (Example 7, Study 1); assay type: cell-based; details: 100 μM, two weeks
Procedure: Human-derived cell lines were evaluated for their susceptibility to the fucose analog 2-fluorofucose in vitro. The cells lines were: LS174T colon adenocarcinoma, […], HL-60 acute mylogenous leukemia, Ramos Burkitt lymphoma, and Caki-1 renal cell carcinoma. The cell lines were cultured in the presence of 100 μM 2-fluorofucose (SGD-2083) in growth media, 100 μM alkynylfucose (SGD-1887) in growth media, or control growth media (without a fucose analog) for two weeks. The growth media were MEM Eagle with 10% FBS (LS174T), 50:50 F12 and RPMI with 10% FBS (PC-3), RPMI with 10% FBS (HL-60), IMDM with 10% FBS (Ramos), and McCoy with 10% FBS ([…]). The cells were evaluated for cell surface fucosylation by FACS using antibody cBR96 to detect LewisY, antibody SSEA-1 to detect LewisX, P-selectin ligand to detect P-selectin, and AOL lectin to detect the general level of fucosylation.

[4] = test system: LS174T colon adenocarcinoma cells; test: Xenograft of LS174T cells without prior treatment (Example 7, Study 3); assay type: in vivo, female nude mice
Procedure: In a third study, tumor cells were implanted without prior treatment with a fucose analog. LS174T colon adenocarcinoma cells (5×10^5 cells in 25% Matrigel) were implanted subcutaneously into female nude mice. Mice were supplied with 50 mM 2-fluorofucose (SGD-2083) in their drinking water from 7 days before implant until 21 days after implant, or were supplied with regular drinking water.

[5] = test system: E-selectin binding to neutrophils; test: E-selectin binding to neutrophils following oral dosing, flow cytometry; assay type: in vivo, Female Balb/c mice
Procedure: as §1, with “In addition, flow samples were gated for Gr-1+ cells to assess E-selectin binding to neutrophils by histogram analysis.” left out

[6] = oral in drinking water, dose-dependent

C[C@H](O)[C@@H](O)[C@@H](O)[C@H](F)C=O [SGD-2083, 2-fluoro-2-deoxy fucose]
effect on circulating white blood cells and neutrophils ([1]; 1 mM in drinking water): very little effect | effect on circulating white blood cells and neutrophils ([1]; 10 mM and 100 mM in drinking water): increasing effect | cellularity in the lymph nodes ([1]; day 21, second study, 10 mM and 100 mM in drinking water, more severe at 100 mM): marked decreased | circulating white blood cells and neutrophils [1, 6]: increase | survival after live A20 challenge ([2]; immunized): still alive at data collection | survival after live A20 challenge ([2]; no immunization, versus regular drinking water): survived a few days longer | tumor growth (PC-3): tumor growth inhibition in vivo was seen | inhibition of protein fucosylation, compared with alkynyl fucose (SGD-1887) [3]: generally a better inhibitor | tumor growth ([4]; 50 mM in drinking water): substantial inhibition of tumor growth | average tumor size ([4]; 50 mM in drinking water from 7 days before until 21 days after implant, regular water 734 mm^3): 110 mm^3 | effect on E-selectin binding to neutrophils ([5]; 1 mM): little effect | effect on E-selectin binding to neutrophils ([5]; 10 mM and 100 mM): increasing effects | E-selectin binding to neutrophils [5, 6]: decreased
